test system: S. typhi GFP reporter counter-screen, fluorescence, 4 h; experiment: S. typhi counter-screen signal inhibition – fluorescence, 4 h, counter-screen for PhoP regulon inhibitor project, dose response (AID 2384)

Row | SMILES | IC50
1 | CCOc1ccc(-c2cc(C)[n+](CCN(CC)CC)c(-c3ccc(OCC)cc3)c2)cc1 | 26.4 µM
2 | N=c1c2c(n(Cc3cccc(Cl)c3)c3c1CCC3)CCCC2 | 47.8 µM
3 | CCCCn1c(NS(=O)(=O)c2ccc(C)cc2)c(S(=O)(=O)c2ccccc2)c2nc3ccccc3nc21 | 9.71 µM
4 | NC1=NC2=C(CCCC2)C2(CCCCC2)S1 | 63.8 µM
5 | CCN1CCN(C(=O)c2cc3cc(Cl)ccc3[nH]2)CC1 | 30.4 µM
6 | O=C(N/N=C\C=C\c1ccc([N+](=O)[O-])o1)c1cccs1 | 11 µM
7 | Cc1ccc2c(c1)C1CN(C)CCC1N2Sc1ccccc1[N+](=O)[O-] (stereo unspecified) | 37.9 µM
8 | O=C(N/N=C/c1cc(Br)ccc1O)c1ccccc1Cl | 112 µM
9 | O=C(Nc1nc(-c2ccccn2)cs1)c1ccc(Br)s1 | 14.5 µM
10 | CNC(=S)N1CCN(c2c(F)cc3c(=O)c(C(=O)O)cn(C4CC4)c3c2OC)CC1C (stereo unspecified) | 48.2 µM
11 | Fc1ccc(Nc2ccnc(Nc3ccc(F)cc3)n2)cc1 | 24.8 µM
12 | OCCN1CCN(Cc2cc(Cl)c3cccnc3c2O)CC1 | 56.6 µM
13 | Cc1cc(C)n2nc(S(=O)(=O)Nc3c(Cl)cccc3Cl)nc2n1 | 49.7 µM
14 | c1ccc2c(c1)OC(CCCN1CCCCC1)c1ccccc1S2 (stereo unspecified) | 76.4 µM
15 | COc1cccc(CNCCc2c[nH]c3ccccc23)c1OCc1ccccc1 | 89.1 µM
16 | CC1CCC(C(C)C)C(OC(=O)C[n+]2cc(-c3ccc(Cl)cc3)n3c2CCC3)C1 (stereo unspecified) | 40.3 µM
17 | O=C(CNC(=O)c1ccccc1)N/N=C/c1ccc([N+](=O)[O-])s1 | 28.7 µM
18 | Nc1c(Cl)ncnc1N/N=C/c1ccccn1 | 32.9 µM
19 | O=[N+]([O-])c1cc(F)c2cccnc2c1O | 7.36 µM
20 | CCn1cc(C(=O)O)c(=O)c2cc3c(cc21)OCO3 | 80.8 µM
21 | O=C(N/N=C/c1cc([N+](=O)[O-])ccc1O)C(O)(c1ccccc1)c1ccccc1 | 54.9 µM

Row | SMILES | IC50
22 | CC(C)(C)/C(O)=C/c1nc2cc(Cl)ccc2oc1=O | 24.2 µM
23 | C[C@H]1O[C@@H](n2cc(F)c(=O)[nH]c2=O)[C@H](O)[C@@H]1O | 63.7 µM
24 | O=C1c2cccc3cccc(c23)C(=O)C1(O)O | 17 µM
25 | O[C@@H](c1cc(C(F)(F)F)nc2c(C(F)(F)F)cccc12)[C@H]1CCCCN1 | 37.8 µM
26 | Nc1nnnn1/N=C/c1cc([N+](=O)[O-])ccc1O | 52.1 µM
27 | CCCCCCCCCCCCCCCC[N+](C)(C)CCN(Cc1ccc(OC)cc1)c1ncccn1 | 19.1 µM
28 | CCN1/C(=C/C(C)=C/c2sc3ccccc3[n+]2CC)Sc2ccccc21 | 3.1 µM
29 | O=C(N/N=C/c1cc([N+](=O)[O-])ccc1O)c1cccc2cc[nH]c12 | 18.5 µM
30 | CCN(CC)CCn1c(=N)n(CC(O)COc2cccc(C)c2)c2ccccc21 (stereo unspecified) | 23.3 µM
31 | Oc1cccc2ccc(Nc3ccccn3)nc12 | 7.38 µM
32 | Cc1cc(N=Nc2ccc(C)c(N=Nc3cc(C)c(N)cc3N)c2)c(N)cc1N | 57.6 µM
33 | Cc1ccc(-c2csc(NC(=O)C[n+]3cc(-c4ccc(C)cc4)n4c3CCC4)n2)cc1 | 19.3 µM
34 | CN1CCN(CCCN2c3ccccc3Sc3ccc(C(F)(F)F)cc32)CC1 | 36.6 µM
35 | COc1ccc(/C=C/C(=O)NC(=S)NNC(=O)c2cnccn2)cc1 | 30.6 µM
36 | CN1CCN(c2nc3cc(C(F)(F)F)ccc3n3cccc23)CC1 | 42.4 µM
37 | O=C(N/N=C/c1ccc([N+](=O)[O-])o1)C(O)c1ccccc1 (stereo unspecified) | 37.4 µM
38 | C=CC1=C(C(=O)O)N2C(=O)[C@@H](NC(=O)/C(=N/OCC(=O)O)c3csc(N)n3)[C@H]2SC1 | 16.5 µM
39 | Cc1ccc(NC2=NCCCS2)cc1Cl | 126 µM
40 | CCn1cc(C(=O)O)c(=O)c2cc(F)c(N3CCN(C(=S)NC(=O)c4cccc(C)c4)CC3)cc21 | 37.8 µM
41 | CN(C)c1ccc(O)c2c1CC1CC3[C@@H](N(C)C)C(=O)C(C(N)=O)=C(O)[C@]3(O)C(=O)C1=C2O (stereo partly specified) | 3.9 µM
42 | C[C@@H](NC(=O)/C(C#N)=C/c1ccc(O)c(O)c1)c1ccccc1 | 84.3 µM

Row | SMILES | IC50
43 | CCC(O)(CC)C(=O)N/N=C/c1cc(Br)cc(Br)c1O | 70.2 µM
44 | COc1ccc(CNCCc2cccc(F)c2)c2ccccc12 | 61.2 µM
45 | Cc1nc(N)nc(N)c1CCCc1ccc(Cl)c(Cl)c1 | 31.5 µM
46 | O=C(/C=C/c1ccc(F)cc1)NC(=S)NNC(=O)c1cnccn1 | 19 µM
47 | O=C(CSc1ccccn1)N/N=C/c1cc([N+](=O)[O-])ccc1O | 40.4 µM
48 | O=C(Oc1c(Cl)cc(Cl)c2cccnc12)c1cccc([N+](=O)[O-])c1 | 9.26 µM
49 | Nc1cc(Cl)c2nonc2c1[N+](=O)[O-] | 32.6 µM
50 | Oc1ccccc1C(Nc1nccs1)c1ccc2cccnc2c1O (stereo unspecified) | 18.6 µM
51 | CCc1ccc(-c2nn(-c3ccccc3)cc2CSC(=N)N)cc1 | 19.3 µM
52 | N/C(=N\N=C/c1ccc(F)cc1)N/N=C\c1ccc(F)cc1 | 38.6 µM
53 | Cc1cc(C)n(-c2nc(SCCN(C)C)c3c4c(sc3n2)CCCC4)n1 | 37.8 µM
54 | OCCCCNCc1ccc(OCc2ccc(Cl)cc2Cl)cc1 | 56.7 µM
55 | CCC(C)NC(=O)c1cn(CC)c2cc(N3CCN(C)CC3)c(F)cc2c1=O (stereo unspecified) | 38.2 µM
56 | Cc1ccc(-n2c(-c3ccc(Br)cc3)c[n+]3c2CCc2ccc4cccnc4c2-3)cc1 | 40.6 µM
57 | N#C/C(=C\c1ccc(O)c(O)c1)C(=O)NCc1ccccc1 | 132 µM
58 | Clc1ccc(CNCc2cccs2)cc1Cl | 45.4 µM
59 | C=C1c2c(Cl)ccc(O)c2C(O)=C2C(=O)[C@]3(O)C(O)=C(C(N)=O)C(=O)[C@@H](N(C)C)[C@@H]3[C@@H](O)C12 (stereo partly specified) | 0.24 µM
60 | CCOC(=O)c1ccccc1-n1c(C)cc(C2N=C(N)Nc3nc4ccccc4n32)c1C (stereo unspecified) | 39.4 µM
61 | Oc1c(Br)cc(Br)cc1C=NCc1ccccc1 | 40.4 µM
62 | CCCCCCCCCCCCCCCC[n+]1cccc(C(=O)N(CC)CC)c1 | 18.3 µM
63 | Cc1cc2nc(C3CCN(CC4COc5ccccc5O4)CC3)[nH]c2cc1C (stereo unspecified) | 19.5 µM

Row | SMILES | IC50
64 | O=C(CCN1CCOCC1)N/N=C/c1cc(Br)cc(Br)c1O | 27.3 µM
65 | CC[n+]1c(/C=C/C=C/c2ccc(N(C)C)cc2)sc2ccccc21 | 128 µM
66 | CCCCCCCCNC(C)C(O)c1ccc(SC(C)C)cc1 (stereo unspecified) | 30.7 µM
67 | O=C(NC(=S)NNC(=O)c1cnccn1)c1ccc(F)cc1 | 24.4 µM
68 | Fc1ccccc1CCNCc1ccccc1 | 34.4 µM
69 | Fc1ccc(Nc2nc(NCc3ccco3)c3ccccc3n2)cc1 | 20.7 µM
70 | C#CCOCCOCCOCCNc1nc(N2CCN(C(=O)CCCCCCCCCCNC(=O)[C@H](CCCCN)n3cc(CCO)nn3)CC2)nc(N2CCN(C(=O)CCCCCCCCCCNC(=O)[C@H](CCCN=C(N)N)n3cc(C[C@@H](C)CC)nn3)CC2)n1 | 18.1 µM
71 | CCn1cc(C(=O)NCCCN(C)C)c(=O)c2cc(F)c(N3CCN(C)CC3)cc21 | 96.4 µM
72 | O=C(N/N=C\c1ccc(Cl)s1)c1cccs1 | 90.8 µM
73 | Cc1ccc(C(=O)NCCN2C3=NC[C@@H](Cc4ccccc4)N3C[C@H]2Cc2ccc(O)cc2)cc1Br | 35.8 µM
74 | Nc1nnc(-c2cccc(Cl)c2Cl)c(N)n1 | 25.8 µM
75 | COc1cc(Br)cc(C=Nc2cccc(C(F)(F)F)c2)c1O | 73.8 µM
76 | C=CCc1cc(Cl)ccc1OCCCNCCO | 94.2 µM
77 | CC(Nc1nc(N2CCCCC2)nc2ccccc12)c1ccccc1 (stereo unspecified) | 133 µM
78 | CN(C)CC/C=C1\c2ccccc2Sc2cc(F)c(Cl)cc21 | 34.8 µM
79 | COc1ccc(CNCCc2ccc(Cl)cc2)cc1OCc1ccccc1 | 69.3 µM
80 | CN(C)c1ccc(O)c2c1CC1CC3C(N(C)C)C(=O)C(C(N)=O)=C(O)[C@@]3(O)C(=O)C1=C2O (stereo partly specified) | 1.69 µM
81 | CCOc1ccc(OCCSc2nc(C)cc(=O)[nH]2)cc1 | 149 µM

— PubChem BioAssay AID2384 (Southern Research Specialized Biocontainment Screening …, 2010)
